Patent US20030144310A1 (priority 2001, published 2003)

How the values were obtained:
[1] = molecular target: T1, rNPFF-1 (Rattus norvegicus, UniProt Q9EP86); assay: Functional activity (EC50 and intrinsic activity relative to NPFF); format: cell-based; conditions: for Functional Activity rNPFF-1 I.A. %: intrinsic activity as percentage of maximal response by NPFF; for EC50: tested 0.001 nM to 3600 nM
T1 construct: expressed in transfected cells
Source text: (§1) The data shown are representative of at least two independent experiments.

[2] = molecular target: T2, rNPFF-2 (Rattus norvegicus, UniProt Q9EQD2); assay: Radioligand binding assay, competitive displacement of [125I]1DMeNPFF at cloned NPFF receptors; conditions: cloned rat receptor
T2 construct: expressed in transfected cells

[3] = molecular target: T2, rNPFF-2; assay: Functional activity (EC50 and intrinsic activity relative to NPFF); format: cell-based; conditions: for Functional Activity rNPFF-2 I.A. %: intrinsic activity as percentage of maximal response by NPFF; for EC50: tested 0.001 nM to 3600 nM, read-out: Functional Activity rNPFF-2 EC50
Source text: as §1

[4] = molecular target: T1, rNPFF-1; assay: Radioligand binding assay, competitive displacement of [125I]1DMeNPFF at cloned NPFF receptors; conditions: cloned rat receptor

T2 sequence (Q9EQD2 whole entry): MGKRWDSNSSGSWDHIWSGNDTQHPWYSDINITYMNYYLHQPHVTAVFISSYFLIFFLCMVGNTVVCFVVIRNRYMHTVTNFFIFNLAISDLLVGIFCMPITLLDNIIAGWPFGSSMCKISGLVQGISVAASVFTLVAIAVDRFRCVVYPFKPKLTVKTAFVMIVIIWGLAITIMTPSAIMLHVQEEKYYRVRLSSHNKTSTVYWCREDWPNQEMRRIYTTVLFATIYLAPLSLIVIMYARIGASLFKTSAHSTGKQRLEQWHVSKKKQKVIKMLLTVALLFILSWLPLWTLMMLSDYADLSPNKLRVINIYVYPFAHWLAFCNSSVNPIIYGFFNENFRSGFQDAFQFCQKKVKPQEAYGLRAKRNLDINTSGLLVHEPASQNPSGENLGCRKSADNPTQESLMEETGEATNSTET
T1 sequence (Q9EP86 whole entry): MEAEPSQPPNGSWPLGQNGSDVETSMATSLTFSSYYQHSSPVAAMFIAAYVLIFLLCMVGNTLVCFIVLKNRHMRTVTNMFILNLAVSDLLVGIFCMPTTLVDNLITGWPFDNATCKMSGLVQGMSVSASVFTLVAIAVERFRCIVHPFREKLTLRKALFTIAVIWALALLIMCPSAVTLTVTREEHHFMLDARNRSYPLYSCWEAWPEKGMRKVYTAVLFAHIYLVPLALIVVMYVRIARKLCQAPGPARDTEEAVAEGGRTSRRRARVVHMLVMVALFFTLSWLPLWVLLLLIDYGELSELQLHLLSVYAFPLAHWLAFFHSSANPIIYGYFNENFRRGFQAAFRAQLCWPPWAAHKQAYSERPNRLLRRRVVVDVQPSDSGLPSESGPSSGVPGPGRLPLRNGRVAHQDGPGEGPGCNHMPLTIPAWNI

Row | Compound | Functional Activity rNPFF-1 I.A. % [1] | EC50 [1] | Ki [2] | Functional Activity rNPFF-2 I.A. % [3] | EC50 [3] | Ki [4]
1 | N=C(N)NCCC[C@H](NS(=O)(=O)c1cccc2ccccc12)C(=O)N[C@@H](Cc1ccccc1)C(N)=O [Compound 1001, N1-[(1S)-2-Amino-1-benzyl-2-oxoethyl]-(2S)-(5-guanidino)-2-[(1-naphthylsulfonyl)amino]pentanamide] | 88% | 38 nM | 1450 nM | 81% | 527 nM | 261 nM
2 | N=C(N)NCCC[C@H](NS(=O)(=O)c1cccc([N+](=O)[O-])c1)C(=O)N[C@@H](Cc1ccccc1)C(N)=O [Compound 1002] | 88% | 139 nM | 1250 nM | 89% | 846 nM | 136 nM
3 | N=C(N)NCCC[C@H](NS(=O)(=O)c1ccc([N+](=O)[O-])cc1)C(=O)N[C@@H](Cc1ccccc1)C(N)=O [Compound 1003] | 74% | 149 nM | 2610 nM | 44% | 1870 nM | 732 nM
4 | N=C(N)NCCC[C@H](NS(=O)(=O)c1c(F)cccc1F)C(=O)N[C@@H](Cc1ccccc1)C(N)=O [Compound 1004] | 79% | 117 nM | 1450 nM | 43% |  | 173 nM
5 | N=C(N)NCCC[C@H](NS(=O)(=O)c1ccc(F)cc1)C(=O)N[C@@H](Cc1ccccc1)C(N)=O [Compound 1005] | 71% | 104 nM | 1370 nM | 46% | 3500 nM | 150 nM
6 | N=C(N)NCCC[C@H](NS(=O)(=O)c1ccc(Cl)cc1)C(=O)N[C@@H](Cc1ccccc1)C(N)=O [Compound 1006] | 75% | 151 nM | 1010 nM | 43% | 3720 nM | 266 nM
7 | Cc1ccc(S(=O)(=O)N[C@@H](CCCNC(=N)N)C(=O)N[C@@H](Cc2ccccc2)C(N)=O)cc1 [Compound 1007] | 79% | 286 nM | 3080 nM | 55% | 2300 nM | 756 nM
8 | N=C(N)NCCC[C@H](NS(=O)(=O)c1ccccc1)C(=O)N[C@@H](Cc1ccccc1)C(N)=O [Compound 1008] | 70% | 4700 nM | 4410 nM | 20% | 5620 nM | 321 nM
9 | COc1ccc(S(=O)(=O)N[C@@H](CCCNC(=N)N)C(=O)N[C@@H](Cc2ccccc2)C(N)=O)cc1 [Compound 1009] |  |  | 1090 nM |  |  | 321 nM
10 | N=C(N)NCCC[C@H](NS(=O)(=O)c1ccc(Cl)cc1Cl)C(=O)N[C@@H](Cc1ccccc1)C(N)=O [Compound 1010] | 85% | 594 nM | 1860 nM | 28% | 2980 nM | 871 nM
11 | N=C(N)NCCC[C@H](NS(=O)(=O)Cc1ccccc1)C(=O)N[C@@H](Cc1ccccc1)C(N)=O [Compound 1011, N1-[(1S)-2-Amino-1-benzyl-2-oxoethyl]-(25)-5-[amino(imino)methyl]amino-2-[(benzylsulfonyl)amino]pentanamide] | 74% | 765 nM | > 10000 nM | 62% | 1340 nM | 5960 nM
12 | N=C(N)NCCC[C@H](NS(=O)(=O)c1ccc(I)cc1)C(=O)N[C@@H](Cc1ccccc1)C(N)=O [Compound 1012] | 71% | 358 nM | 2920 nM | 93% | 1420 nM | 1430 nM
13 | N=C(N)NCCC[C@H](NS(=O)(=O)c1cccs1)C(=O)N[C@@H](Cc1ccccc1)C(N)=O [Compound 1013] | 80% | 135 nM | 6390 nM | 42% | > 3160 nM | 211 nM
14 | N=C(N)NCCC[C@H](NS(=O)(=O)c1ccc2ccccc2c1)C(=O)N[C@@H](Cc1ccccc1)C(N)=O [Compound 1014, N1-[(1S)-2-Amino-1-benzyl-2-oxoethyl]-(2S)-(5-guanidino)-2-[(2-naphthylsulfonyl)amino]pentanamide] | 74% | 52 nM | 2780 nM | 73% | 906 nM | 314 nM
15 | COc1ccc(S(=O)(=O)N[C@@H](CCCNC(=N)N)C(=O)N[C@@H](Cc2ccccc2)C(N)=O)cc1OC [Compound 1015] | 84% | 140 nM | > 10000 nM | 74% | 1810 nM | 462 nM
16 | N=C(N)NCCC[C@H](NS(=O)(=O)c1ccc(Cl)c([N+](=O)[O-])c1)C(=O)N[C@@H](Cc1ccccc1)C(N)=O [Compound 1016] | 72% | 62 nM | 2090 nM | 81% | 660 nM | 151 nM
17 | N=C(N)NCCC[C@H](NS(=O)(=O)c1ccc(F)c(Cl)c1)C(=O)N[C@@H](Cc1ccccc1)C(N)=O [Compound 1017] | 84% | 376 nM | 3560 nM | 45% | > 3160 nM | 1140 nM
18 | N=C(N)NCCC[C@H](NS(=O)(=O)c1ccc(C(F)(F)F)cc1[N+](=O)[O-])C(=O)N[C@@H](Cc1ccccc1)C(N)=O [Compound 1018] | 21% | > 3160 nM | 4430 nM | 10% | 5620 nM | 1950 nM
19 | N=C(N)NCCC[C@H](NS(=O)(=O)c1c(Cl)cccc1Cl)C(=O)N[C@@H](Cc1ccccc1)C(N)=O [Compound 1019] | 56% | 2200 nM | 3370 nM | 45% | > 3160 nM | 815 nM
20 | N=C(N)NCCC[C@H](NS(=O)(=O)c1cc(Cl)sc1Cl)C(=O)N[C@@H](Cc1ccccc1)C(N)=O [Compound 1020] | 01% | > 10000 nM | 5150 nM | 02% | > 10000 nM | 1950 nM
21 | N=C(N)NCCC[C@H](NS(=O)(=O)c1cc(Cl)ccc1Cl)C(=O)N[C@@H](Cc1ccccc1)C(N)=O [Compound 1021] | 78% | 1030 nM | 2030 nM | 59% | 2330 nM | 335 nM
22 | N=C(N)NCCC[C@H](NS(=O)(=O)c1ccc(Cl)c(Cl)c1)C(=O)N[C@@H](Cc1ccccc1)C(N)=O [Compound 1022] | 86% | 1860 nM |  | 34% | > 3160 nM | 
23 | N#Cc1cccc(S(=O)(=O)N[C@@H](CCCNC(=N)N)C(=O)N[C@@H](Cc2ccccc2)C(N)=O)c1 [Compound 1023] | 90% | 166 nM | 9920 nM | 28% | > 3160 nM | 496 nM
24 | N=C(N)NCCC[C@@H](NS(=O)(=O)c1ccccc1Br)C(=O)N[C@@H](Cc1ccccc1)C(N)=O [Compound 1030] |  |  |  | 71% |  | 
25 | N=C(N)NCCC[C@H](NS(=O)(=O)c1ccccc1Br)C(=O)N[C@@H](Cc1ccccc1)C(N)=O [Compound 2001] |  |  |  | 09% |  | 
26 | COc1ccc(C)cc1S(=O)(=O)N[C@@H](CCCNC(=N)N)C(=O)N[C@@H](Cc1ccccc1)C(N)=O [Compound 2003] | 102% |  | > 10000 nM | 52% | > 3160 nM | 
